From ChEMBL document CHEMBL3991601, “The target landscape of clinical kinase drugs” (Science, 2017)
The source made the active and inactive calls. For most assays here, no stated cut-off is given here; in the data, actives have a measured Kd and inactives only a lower limit.

Columns and labels:
[1] = target: Calcium/calmodulin-dependent protein kinase type II subunit gamma (Homo sapiens, UniProt Q13555)
[2] = target: Receptor-interacting serine/threonine-protein kinase 2 (Homo sapiens, UniProt O43353)
Chain of Receptor-interacting serine/threonine-protein kinase 2 (O43353 whole entry): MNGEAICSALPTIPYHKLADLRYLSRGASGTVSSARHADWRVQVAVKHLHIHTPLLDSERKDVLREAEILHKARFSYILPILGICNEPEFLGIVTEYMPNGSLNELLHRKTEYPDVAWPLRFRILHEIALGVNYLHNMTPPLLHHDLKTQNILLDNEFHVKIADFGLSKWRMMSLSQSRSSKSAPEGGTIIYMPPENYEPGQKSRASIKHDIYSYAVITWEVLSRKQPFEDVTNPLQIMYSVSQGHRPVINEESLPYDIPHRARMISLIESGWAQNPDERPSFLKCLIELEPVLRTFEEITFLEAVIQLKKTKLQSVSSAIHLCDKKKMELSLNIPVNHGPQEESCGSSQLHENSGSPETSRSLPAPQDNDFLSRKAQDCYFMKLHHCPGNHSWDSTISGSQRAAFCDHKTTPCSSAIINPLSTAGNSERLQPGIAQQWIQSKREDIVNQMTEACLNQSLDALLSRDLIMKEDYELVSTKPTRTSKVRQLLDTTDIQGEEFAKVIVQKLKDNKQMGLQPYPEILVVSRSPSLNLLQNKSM

[3] = target: T1, Serine/threonine-protein kinase LATS1 (Homo sapiens, UniProt O95835)
T1 sequence (O95835 whole entry): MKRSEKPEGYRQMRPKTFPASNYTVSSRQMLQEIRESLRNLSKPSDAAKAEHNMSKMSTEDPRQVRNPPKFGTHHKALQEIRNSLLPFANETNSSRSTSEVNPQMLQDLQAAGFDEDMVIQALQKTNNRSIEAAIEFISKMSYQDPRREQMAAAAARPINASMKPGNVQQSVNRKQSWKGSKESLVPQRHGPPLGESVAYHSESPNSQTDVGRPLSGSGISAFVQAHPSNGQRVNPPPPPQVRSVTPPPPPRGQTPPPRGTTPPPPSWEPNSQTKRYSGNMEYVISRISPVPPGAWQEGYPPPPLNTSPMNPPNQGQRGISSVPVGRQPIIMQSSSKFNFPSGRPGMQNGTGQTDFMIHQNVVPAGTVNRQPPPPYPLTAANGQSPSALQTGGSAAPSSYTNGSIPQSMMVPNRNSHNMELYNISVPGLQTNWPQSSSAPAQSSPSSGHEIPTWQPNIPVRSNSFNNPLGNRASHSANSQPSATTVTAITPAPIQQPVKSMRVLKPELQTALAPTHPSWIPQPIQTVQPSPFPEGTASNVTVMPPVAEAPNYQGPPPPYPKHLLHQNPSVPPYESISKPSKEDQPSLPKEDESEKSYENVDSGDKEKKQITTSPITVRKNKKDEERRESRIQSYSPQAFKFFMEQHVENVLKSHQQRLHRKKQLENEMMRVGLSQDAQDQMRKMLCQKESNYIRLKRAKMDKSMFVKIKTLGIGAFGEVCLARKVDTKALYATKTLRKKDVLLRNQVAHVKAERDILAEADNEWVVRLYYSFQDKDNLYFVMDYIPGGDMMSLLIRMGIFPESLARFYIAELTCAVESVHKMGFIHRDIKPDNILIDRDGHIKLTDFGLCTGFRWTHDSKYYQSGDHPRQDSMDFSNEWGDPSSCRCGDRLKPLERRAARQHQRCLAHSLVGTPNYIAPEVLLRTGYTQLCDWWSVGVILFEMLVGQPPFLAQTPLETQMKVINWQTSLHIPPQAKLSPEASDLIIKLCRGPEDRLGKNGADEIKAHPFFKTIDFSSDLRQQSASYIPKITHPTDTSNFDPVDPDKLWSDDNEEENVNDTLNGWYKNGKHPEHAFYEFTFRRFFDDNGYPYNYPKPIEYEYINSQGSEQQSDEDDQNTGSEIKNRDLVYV

[4] = target: Serine/threonine-protein kinase 10 (Homo sapiens, UniProt O94804)
Chain of Serine/threonine-protein kinase 10 (O94804 whole entry): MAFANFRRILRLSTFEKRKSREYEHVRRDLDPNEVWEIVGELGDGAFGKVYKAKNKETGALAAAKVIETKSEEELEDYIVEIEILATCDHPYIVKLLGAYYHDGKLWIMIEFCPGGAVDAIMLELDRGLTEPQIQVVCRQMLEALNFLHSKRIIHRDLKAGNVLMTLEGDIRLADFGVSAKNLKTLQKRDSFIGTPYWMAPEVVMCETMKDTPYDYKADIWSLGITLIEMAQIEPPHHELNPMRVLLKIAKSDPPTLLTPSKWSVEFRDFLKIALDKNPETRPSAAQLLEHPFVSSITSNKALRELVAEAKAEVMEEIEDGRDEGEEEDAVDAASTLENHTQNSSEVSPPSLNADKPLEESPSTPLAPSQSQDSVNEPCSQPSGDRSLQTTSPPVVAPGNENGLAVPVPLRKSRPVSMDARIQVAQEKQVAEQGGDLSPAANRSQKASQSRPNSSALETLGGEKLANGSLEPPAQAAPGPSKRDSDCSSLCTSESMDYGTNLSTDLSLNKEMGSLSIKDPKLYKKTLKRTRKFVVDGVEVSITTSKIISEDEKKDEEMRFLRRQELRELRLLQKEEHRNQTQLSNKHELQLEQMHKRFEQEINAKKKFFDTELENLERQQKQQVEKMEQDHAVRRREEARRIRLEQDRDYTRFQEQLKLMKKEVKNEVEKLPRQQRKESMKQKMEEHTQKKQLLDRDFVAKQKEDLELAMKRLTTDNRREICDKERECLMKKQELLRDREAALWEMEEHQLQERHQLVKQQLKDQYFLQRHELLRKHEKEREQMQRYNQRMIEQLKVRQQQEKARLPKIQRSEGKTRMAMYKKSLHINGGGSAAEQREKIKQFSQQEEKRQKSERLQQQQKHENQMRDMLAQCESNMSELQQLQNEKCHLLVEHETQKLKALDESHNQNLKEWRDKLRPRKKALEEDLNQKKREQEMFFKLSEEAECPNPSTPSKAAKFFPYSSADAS

[5] = target: T2, Interleukin-1 receptor-associated kinase 3 (Homo sapiens, UniProt Q9Y616)
T2 sequence (Q9Y616 whole entry): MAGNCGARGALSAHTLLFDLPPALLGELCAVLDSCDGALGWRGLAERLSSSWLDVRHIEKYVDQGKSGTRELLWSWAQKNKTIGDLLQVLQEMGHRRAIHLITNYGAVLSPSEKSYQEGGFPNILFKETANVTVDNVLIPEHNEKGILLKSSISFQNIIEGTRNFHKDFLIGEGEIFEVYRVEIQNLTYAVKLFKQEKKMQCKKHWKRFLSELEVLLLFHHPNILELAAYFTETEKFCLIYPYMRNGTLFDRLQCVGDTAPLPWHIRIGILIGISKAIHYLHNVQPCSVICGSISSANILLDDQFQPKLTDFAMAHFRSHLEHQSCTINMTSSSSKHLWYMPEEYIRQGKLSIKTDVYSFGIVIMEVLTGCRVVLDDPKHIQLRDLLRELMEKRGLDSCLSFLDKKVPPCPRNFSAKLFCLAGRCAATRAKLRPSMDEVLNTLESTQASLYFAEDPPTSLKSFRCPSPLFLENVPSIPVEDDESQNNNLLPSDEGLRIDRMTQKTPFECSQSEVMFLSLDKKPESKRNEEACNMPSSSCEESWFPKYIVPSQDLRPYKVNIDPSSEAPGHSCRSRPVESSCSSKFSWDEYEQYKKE

GTP-binding protein 4 = GTP-binding protein 4 (Homo sapiens, UniProt Q9BZE4)
Ephrin type-A receptor 4 = Ephrin type-A receptor 4 (Homo sapiens, UniProt P54764)
Chain of Ephrin type-A receptor 4 (P54764 whole entry): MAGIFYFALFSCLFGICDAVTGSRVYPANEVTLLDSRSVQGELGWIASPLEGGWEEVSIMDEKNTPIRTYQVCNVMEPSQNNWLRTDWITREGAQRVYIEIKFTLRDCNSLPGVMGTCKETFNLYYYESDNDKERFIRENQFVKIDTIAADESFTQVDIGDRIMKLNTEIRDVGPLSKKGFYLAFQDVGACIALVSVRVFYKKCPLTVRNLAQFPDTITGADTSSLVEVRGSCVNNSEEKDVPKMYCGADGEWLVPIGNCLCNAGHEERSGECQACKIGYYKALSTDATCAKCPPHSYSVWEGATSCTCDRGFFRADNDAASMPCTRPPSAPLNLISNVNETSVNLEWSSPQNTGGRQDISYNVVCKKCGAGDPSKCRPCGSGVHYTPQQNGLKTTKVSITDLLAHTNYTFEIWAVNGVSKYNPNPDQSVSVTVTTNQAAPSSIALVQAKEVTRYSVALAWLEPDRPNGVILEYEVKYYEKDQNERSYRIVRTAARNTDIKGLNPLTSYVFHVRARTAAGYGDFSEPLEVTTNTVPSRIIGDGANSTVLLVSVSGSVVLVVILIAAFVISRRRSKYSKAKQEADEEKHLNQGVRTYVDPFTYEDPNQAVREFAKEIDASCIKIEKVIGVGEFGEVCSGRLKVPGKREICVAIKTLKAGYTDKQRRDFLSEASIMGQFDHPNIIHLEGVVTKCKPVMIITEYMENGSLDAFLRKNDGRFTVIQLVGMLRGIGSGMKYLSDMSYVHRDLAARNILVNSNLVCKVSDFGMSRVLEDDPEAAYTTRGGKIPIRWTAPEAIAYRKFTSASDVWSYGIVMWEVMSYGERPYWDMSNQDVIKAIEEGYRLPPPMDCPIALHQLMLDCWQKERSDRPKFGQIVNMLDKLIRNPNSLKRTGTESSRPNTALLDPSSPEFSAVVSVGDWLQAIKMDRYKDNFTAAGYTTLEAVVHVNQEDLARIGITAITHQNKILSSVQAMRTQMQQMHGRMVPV

[6] = target: Mitogen-activated protein kinase 8 (Homo sapiens, UniProt P45983)
Chain of Mitogen-activated protein kinase 8 (P45983 whole entry): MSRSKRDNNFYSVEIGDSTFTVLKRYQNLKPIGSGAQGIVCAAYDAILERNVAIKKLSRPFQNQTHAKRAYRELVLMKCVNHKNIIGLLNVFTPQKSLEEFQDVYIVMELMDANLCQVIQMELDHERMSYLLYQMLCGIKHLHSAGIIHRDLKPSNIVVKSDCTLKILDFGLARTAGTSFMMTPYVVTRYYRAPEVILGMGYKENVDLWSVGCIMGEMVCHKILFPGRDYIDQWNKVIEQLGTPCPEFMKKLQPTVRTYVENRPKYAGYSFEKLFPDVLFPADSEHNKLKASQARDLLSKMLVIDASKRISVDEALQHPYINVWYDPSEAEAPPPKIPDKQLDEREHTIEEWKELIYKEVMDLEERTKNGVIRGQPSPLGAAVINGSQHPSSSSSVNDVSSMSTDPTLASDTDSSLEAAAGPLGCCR

[7] = target: Tyrosine-protein kinase Fer (Homo sapiens, UniProt P16591)
TGF-beta receptor type-2 = TGF-beta receptor type-2 (Homo sapiens, UniProt P37173)
Chain of TGF-beta receptor type-2 (P37173 whole entry): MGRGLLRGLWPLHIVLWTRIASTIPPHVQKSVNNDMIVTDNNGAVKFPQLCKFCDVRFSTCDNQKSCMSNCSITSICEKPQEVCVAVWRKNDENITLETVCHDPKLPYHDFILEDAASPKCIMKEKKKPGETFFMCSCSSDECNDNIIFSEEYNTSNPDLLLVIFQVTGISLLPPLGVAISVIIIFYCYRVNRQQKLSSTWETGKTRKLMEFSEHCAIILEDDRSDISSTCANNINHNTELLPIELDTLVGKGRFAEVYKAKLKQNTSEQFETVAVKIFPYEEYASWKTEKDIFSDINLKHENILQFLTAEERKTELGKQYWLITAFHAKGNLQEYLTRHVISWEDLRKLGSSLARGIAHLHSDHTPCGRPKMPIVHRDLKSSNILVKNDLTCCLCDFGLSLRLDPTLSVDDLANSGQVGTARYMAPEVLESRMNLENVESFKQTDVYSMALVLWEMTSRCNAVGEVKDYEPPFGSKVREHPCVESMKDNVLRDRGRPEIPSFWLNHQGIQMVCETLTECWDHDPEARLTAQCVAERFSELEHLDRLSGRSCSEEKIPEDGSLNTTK

[8] = target: Serine/threonine-protein kinase pim-1 (Homo sapiens, UniProt P11309)
Chain of Serine/threonine-protein kinase pim-1 (P11309 whole entry): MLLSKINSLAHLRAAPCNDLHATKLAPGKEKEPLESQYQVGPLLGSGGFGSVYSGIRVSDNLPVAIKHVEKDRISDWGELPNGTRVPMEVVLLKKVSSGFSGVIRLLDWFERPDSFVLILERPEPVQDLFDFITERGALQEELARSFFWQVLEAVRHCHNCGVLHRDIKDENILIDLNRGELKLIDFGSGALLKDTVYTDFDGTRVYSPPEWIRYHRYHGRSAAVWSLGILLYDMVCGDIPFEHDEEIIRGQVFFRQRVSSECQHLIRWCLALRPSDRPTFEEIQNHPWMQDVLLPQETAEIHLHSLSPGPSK

[9] = target: T3, Serine/threonine-protein kinase A-Raf (Homo sapiens, UniProt P10398)
T3 sequence (P10398 whole entry): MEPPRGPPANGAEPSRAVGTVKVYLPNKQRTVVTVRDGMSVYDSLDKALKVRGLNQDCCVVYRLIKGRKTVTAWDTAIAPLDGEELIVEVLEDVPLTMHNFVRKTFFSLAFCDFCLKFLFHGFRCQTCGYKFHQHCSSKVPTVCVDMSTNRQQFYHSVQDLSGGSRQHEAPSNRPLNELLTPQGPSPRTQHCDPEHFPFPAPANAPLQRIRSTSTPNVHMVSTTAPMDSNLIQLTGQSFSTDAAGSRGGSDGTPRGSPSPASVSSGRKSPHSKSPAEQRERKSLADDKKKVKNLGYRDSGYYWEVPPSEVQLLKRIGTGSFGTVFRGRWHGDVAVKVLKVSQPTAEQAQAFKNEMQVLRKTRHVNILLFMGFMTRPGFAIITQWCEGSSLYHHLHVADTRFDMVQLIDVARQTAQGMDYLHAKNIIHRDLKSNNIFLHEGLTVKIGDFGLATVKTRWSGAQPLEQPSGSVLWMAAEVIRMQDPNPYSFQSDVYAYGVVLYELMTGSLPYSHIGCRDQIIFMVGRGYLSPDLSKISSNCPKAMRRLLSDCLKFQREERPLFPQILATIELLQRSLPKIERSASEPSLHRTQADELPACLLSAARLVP

Chain of Calcium/calmodulin-dependent protein kinase type II subunit gamma (Q13555 whole entry): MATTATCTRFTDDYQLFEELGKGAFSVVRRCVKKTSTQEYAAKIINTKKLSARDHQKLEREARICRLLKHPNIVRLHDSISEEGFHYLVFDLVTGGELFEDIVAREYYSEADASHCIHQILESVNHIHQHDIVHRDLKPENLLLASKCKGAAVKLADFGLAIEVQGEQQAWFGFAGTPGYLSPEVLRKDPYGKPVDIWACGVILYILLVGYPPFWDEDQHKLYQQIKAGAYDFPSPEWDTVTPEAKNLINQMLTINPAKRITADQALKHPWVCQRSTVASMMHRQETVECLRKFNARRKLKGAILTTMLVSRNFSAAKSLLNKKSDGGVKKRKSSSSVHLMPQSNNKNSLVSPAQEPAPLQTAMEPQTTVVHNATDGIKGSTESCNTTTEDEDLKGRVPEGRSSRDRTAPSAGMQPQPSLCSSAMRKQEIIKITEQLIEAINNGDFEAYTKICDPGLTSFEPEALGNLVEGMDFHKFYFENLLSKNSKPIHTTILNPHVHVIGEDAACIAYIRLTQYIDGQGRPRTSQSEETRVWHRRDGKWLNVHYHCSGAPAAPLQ

Compound	Kd [1]	Kd [2]	Kd [3]	Kd [4]	Kd [5]	Kd (GTP-binding protein 4)	Kd (Ephrin type-A receptor 4)	Kd [6]	Kd [7]	Kd (TGF-beta receptor type-2)	Kd [8]	Kd [9]
CN1N=C(N)c2cn([C@@H]3O[C@H](COP(=O)(O)O)[C@@H](O)[C@H]3O)c3ncnc1c23 [TRICIRIBINE PHOSPHATE]	> 30 µM (inactive)	> 30 µM (inactive)	> 30 µM (inactive)	> 30 µM (inactive)	> 30 µM (inactive)	> 30 µM (inactive)	> 30 µM (inactive)	> 30 µM (inactive)	> 30 µM (inactive)	> 30 µM (inactive)		
CNC(=O)c1cc(Oc2ccc(NC(=O)Nc3ccc(Cl)c(C(F)(F)F)c3)c(F)c2)ccn1 [REGORAFENIB]	> 30 µM (inactive)		> 30 µM (inactive)	> 30 µM (inactive)	> 30 µM (inactive)	> 30 µM (inactive)	> 30 µM (inactive)	> 30 µM (inactive)	> 30 µM (inactive)	> 30 µM (inactive)	> 30 µM (inactive)	> 30 µM (inactive)
COc1cc2nccc(Oc3ccc(NC(=O)NC4CC4)c(Cl)c3)c2cc1C(N)=O [LENVATINIB]	> 30 µM (inactive)	0.011 µM (active)	> 30 µM (inactive)	0.793 µM (active)	> 30 µM (inactive)	> 30 µM (inactive)	> 30 µM (inactive)			> 30 µM (inactive)	> 30 µM (inactive)	> 30 µM (inactive)
Nc1nc(N)c2nc(-c3cccc(O)c3)c(-c3cccc(O)c3)nc2n1 [TG100-115]						> 30 µM (inactive)						> 30 µM (inactive)
O=C(Nc1cccc(Cl)c1)Nc1ncc(CCNc2ncnc3ccsc23)s1 [SNS-314]		> 30 µM (inactive)	> 30 µM (inactive)	> 30 µM (inactive)	> 30 µM (inactive)	> 30 µM (inactive)	> 30 µM (inactive)			> 30 µM (inactive)		> 30 µM (inactive)
CN1CCN(c2ccc3nc(-c4c(N)c5c(F)cccc5[nH]c4=O)[nH]c3c2)CC1 [DOVITINIB]						> 30 µM (inactive)						> 30 µM (inactive)
N[C@@H]1CCCN(c2c(/C=C3\SC(=O)NC3=O)cccc2-c2ccccc2)C1	> 30 µM (inactive)	> 30 µM (inactive)	> 30 µM (inactive)	> 30 µM (inactive)	> 30 µM (inactive)	> 30 µM (inactive)	> 30 µM (inactive)	> 30 µM (inactive)	> 30 µM (inactive)			> 30 µM (inactive)
CCc1cnn2c(NCc3ccc[n+]([O-])c3)cc(N3CCCC[C@H]3CCO)nc12 [DINACICLIB]	> 30 µM (inactive)	> 30 µM (inactive)	> 30 µM (inactive)	> 30 µM (inactive)	> 30 µM (inactive)	> 30 µM (inactive)	> 30 µM (inactive)		> 30 µM (inactive)	> 30 µM (inactive)		> 30 µM (inactive)
CN1CCC(COc2cnc(-c3cccc(Cn4nc(-c5cccc(C#N)c5)ccc4=O)c3)nc2)CC1 [TEPOTINIB]	> 30 µM (inactive)	> 30 µM (inactive)	> 30 µM (inactive)	> 30 µM (inactive)	> 30 µM (inactive)	> 30 µM (inactive)	> 30 µM (inactive)		> 30 µM (inactive)	> 30 µM (inactive)	> 30 µM (inactive)	> 30 µM (inactive)
Cc1cn(-c2cc(NC(=O)c3ccc(C)c(Nc4nccc(-c5cccnc5)n4)c3)cc(C(F)(F)F)c2)cn1 [NILOTINIB]						> 30 µM (inactive)						> 30 µM (inactive)
OCCn1cc(-c2cnc3nnn(Cc4ccc5ncccc5c4)c3n2)cn1 [PF-04217903]	> 30 µM (inactive)	> 30 µM (inactive)	> 30 µM (inactive)	> 30 µM (inactive)	> 30 µM (inactive)	> 30 µM (inactive)	> 30 µM (inactive)		> 30 µM (inactive)	> 30 µM (inactive)		> 30 µM (inactive)
COc1cc2nccc(Oc3ccc(NC(=O)Nc4cc(C)on4)c(Cl)c3)c2cc1OC [TIVOZANIB]	> 30 µM (inactive)		> 30 µM (inactive)	4.62 µM (active)	> 30 µM (inactive)	> 30 µM (inactive)	5.56 µM (active)	> 30 µM (inactive)	> 30 µM (inactive)	> 30 µM (inactive)	> 30 µM (inactive)	
COC(=O)[C@@]1(O)C[C@H]2O[C@]1(C)n1c3ccccc3c3c4c(c5c6ccccc6n2c5c31)C(=O)NC4 [K-252A]	0.173 µM (active)		0.067 µM (active)	0.481 µM (active)	0.254 µM (active)	> 30 µM (inactive)	> 30 µM (inactive)		0.455 µM (active)	> 30 µM (inactive)	> 30 µM (inactive)	> 30 µM (inactive)

Further lines, results first:

Kd [1]	Kd [2]	Kd [3]	Kd [4]	Kd [5]	Kd (GTP-binding protein 4)	Kd (Ephrin type-A receptor 4)	Kd [6]	Kd [7]	Kd (TGF-beta receptor type-2)	Kd [8]	Kd [9]	Compound
	> 30 µM (inactive)	> 30 µM (inactive)		> 30 µM (inactive)	> 30 µM (inactive)	> 30 µM (inactive)		> 30 µM (inactive)	2.35 µM (active)		> 30 µM (inactive)	Cc1cc(Nc2cc(N3CCN(C)CC3)nc(/C=C/c3ccccc3)n2)n[nH]1 [ENMD-2076]
> 30 µM (inactive)	> 30 µM (inactive)	> 30 µM (inactive)	2.16 µM (active)	0.026 µM (active)	> 30 µM (inactive)	> 30 µM (inactive)	> 30 µM (inactive)	> 30 µM (inactive)	> 30 µM (inactive)		> 30 µM (inactive)	CN1CCC(CNc2ccc3ncc(-c4cccc(OC(F)(F)F)c4)n3n2)CC1 [SGI-1776]
											> 30 µM (inactive)	CCn1c(-c2nonc2N)nc2c(C#CC(C)(C)O)ncc(OC[C@H]3CCCNC3)c21 [GSK-690693]
		0.066 µM (active)		0.057 µM (active)	> 30 µM (inactive)				0.3 µM (active)		> 30 µM (inactive)	Cc1nc(N)sc1-c1ccnc(Nc2ccc(N3CCOCC3)cc2)n1 [CYC-116]
